Patent US7109186B2 (Bristol-Myers Squibb Company, priority 2002, dated 2006)

Biological target: T1, HIV-integrase (Human immunodeficiency virus type 1 group M subtype B, UniProt P04585)
T1 construct: 0.26 ng of recombinant integrase was incubated with the beads for 90 min at 37 C
Experiment: HIV integrase SPA integration assay (biotin-labeled substrate DNA on streptavidin SPA beads, P33-labeled target DNA)
Format: biochemical
Details: percent inhibition of HIV-integrase in the presence of 20 μM of compound
Method: For each reaction, 5 pmole of biotin labeled substrate DNA was bound to 100 ug of Streptavidin coated PVT SPA beads (Amersham Pharmacia Biotech). 0.26 ng of recombinant integrase was incubated with the beads for 90 min at 37 C. Unbound enzyme was removed by washing the complex followed by addition of inhibitors and 0.1 fmol of P33 labeled target DNA. Reaction was stopped by adding EDTA to a final concentration of 10 mM. Samples were counted in TopCountNXT (Packard) and the CPM was used as a measure of integration. Reaction condition was as described in A. Engelman and R. Craigie, J. Virol. 69, 5908–5911 (1995). The sequences of substrate and target DNA were described in Nucleic Acid Research 22, 1121–1122 (1994).

Q: Which inhibition at 20 µM does the source give for `CON(Cc1ccc(C)cc1)C(=O)C1=C(O)C(=O)N(C)C1` [Compound 59, 4-Hydroxy-1-methyl-5-oxo-2,5-dihydro-1H-pyrrole-3-carboxylic acid methoxy-(4-methyl-benzyl)-amide] here?
A: 99.9%

Q: For `CN(Cc1ccc(Cl)c(Cl)c1)C(=O)C1=C(O)C(=O)N(CCC(=O)O)C1` [Compound 18, 3-[4-[(3,4-dichloro-benzyl)-methyl-carbamoyl]-3-hydroxy-2-oxo-2,5-dihydro-pyrrol-1-yl]-propionic acid], which inhibition at 20 µM is on record?
A: 99.9%

Q: Which inhibition at 20 µM does the source give for `CON(Cc1ccccc1F)C(=O)C1=C(O)C(=O)N(C)C1` [Compound 50, 4-Hydroxy-1-methyl-5-oxo-2,5-dihydro-1H-pyrrole-3-carboxylic acid (2-fluoro-benzyl)-methoxy-amide] here?
A: 92%

Q: Which inhibition at 20 µM does the source give for `CON(Cc1ccc(C)c(F)c1)C(=O)C1=C(O)C(=O)N(C)C1` [Compound 65, 4-Hydroxy-1-methyl-5-oxo-2,5-dihydro-1H-pyrrole-3-carboxylic acid (3-fluoro-4-methyl-benzyl)-methoxy-amide] here?
A: 99.9%

Q: With `CN(Cc1ccc(Cl)c(Cl)c1)C(=O)C1=C(O)C(=O)N(CC(=O)NCC(=O)NCCC(=O)NCC(=O)O)C1` [Compound 35, {3-[2-(2-{4-[(3,4-Dichloro-benzyl)-methyl-carbamoyl]-3-hydroxy-2-oxo-2,5-dihydro-pyrrol-1-yl}-acetylamino)-acetylamino]-propionylamino}-acetic acid] as the compound, how does the inhibition at 20 µM read?
A: 99.9%

Q: With `CN(Cc1ccc(Cl)c(Cl)c1)C(=O)C1=C(O)C(=O)N(CCNC(=O)CCN2CCOCC2)C1` [Compound 38, 4-Hydroxy-1-[2-(3-morpholin-4-yl-propionylamino)-ethyl]-5-oxo-2,5-dihydro-1H-pyrrole-3-carboxylic acid (3,4-dichloro-benzyl)-methyl-amide] as the compound, how does the inhibition at 20 µM read?
A: 99.9%

Q: With `CC(C)N1CC(C(=O)N(C)Cc2ccc(F)cc2)=C(O)C1=O` [Compound 11, 4-Hydroxy-1-isopropyl-5-oxo-2,5-dihydro-1H-pyrrole-3-carboxylic acid (4-fluoro-benzyl)-methyl-amide] as the compound, how does the inhibition at 20 µM read?
A: 99.9%

Q: With `CON(C(=O)C1=C(O)C(=O)N(C)C1)C(c1ccc(F)cc1)c1ccc(F)cc1` [Compound 73, 4-Hydroxy-1-methyl-5-oxo-2,5-dihydro-1H-pyrrole-3-carboxylic acid [bis-(4-fluoro-phenyl)-methyl]-methoxy-amide] as the compound, how does the inhibition at 20 µM read?
A: 10%

Q: Which inhibition at 20 µM does the source give for `CN1CC(C(=O)N(C)Cc2ccc(F)cc2)=C(O)C1=O` [Compound 1, 4-Hydroxy-1-methyl-5-oxo-2,5-dihydro-1H-pyrrole-3-carboxylic acid (4-fluoro-benzyl)-methyl amide] here?
A: 99.9%

Q: Which inhibition at 20 µM does the source give for `CN1CC(C(=O)N(C)Cc2ccc(Cl)c(Cl)c2)=C(O)C1=O` [Compound 12, 4-Hydroxy-1-methyl-5-oxo-2,5-dihydro-1H-pyrrole-3-carboxylic acid (3,4-dichloro-benzyl)-methyl amide] here?
A: 99.9%

Q: With `CN(Cc1ccc(Cl)c(Cl)c1)C(=O)C1=C(O)C(=O)N(Cc2ccc(C(=O)O)cc2)C1` [Compound 36, 4-{4-[(3,4-Dichloro-benzyl)-methyl-carbamoyl]-3-hydroxy-2: oxo-2,5-dihydro-pyrrol-1-ylmethyl}-benzoic acid] as the compound, how does the inhibition at 20 µM read?
A: 92%

Q: Which inhibition at 20 µM does the source give for `COC(=O)c1ccc(CN(OC)C(=O)C2=C(O)C(=O)N(C)C2)cc1` [Compound 67, 4-{[(4-Hydroxy-1-methyl-5-oxo-2,5-dihydro-1H-pyrrole-3-carbonyl)-methoxy-amino]-methyl}-benzoic acid methyl ester] here?
A: 96.5%

Q: With `CN(Cc1ccc(Cl)c(Cl)c1)C(=O)C1=C(O)C(=O)N(CCCn2ccnc2)C1` [Compound 30, 4-Hydroxy-1-(3-imidazol-1-yl-propyl)-5-oxo-2,5-dihydro-1H-pyrrole-3-carboxylic acid (3,4-dichloro-benzyl)-methyl-amide] as the compound, how does the inhibition at 20 µM read?
A: 99.9%

Q: With `CN(Cc1ccc(Cl)c(Cl)c1)C(=O)C1=C(O)C(=O)N(Cc2ccc(Cl)c(Cl)c2)C1` [Compound 19, 1-(3,4-Dichloro-benzyl)-4-hydroxy-5-oxo-2,5-dihydro-1H-pyrrole-3-carboxylic acid (3,4-dichloro-benzyl)-methyl-amide] as the compound, how does the inhibition at 20 µM read?
A: 99.9%

Q: For `CN(Cc1ccc(Cl)c(Cl)c1)C(=O)C1=C(O)C(=O)N(CCC(N)=O)C1` [Compound 40, 1-(2-Carbamoyl-ethyl)-4-hydroxy-5-oxo-2,5-dihydro-1H-pyrrole-3-carboxylic acid (3,4-dichloro-benzyl)-methyl-amide], which inhibition at 20 µM is on record?
A: 99.9%

Q: With `CN(Cc1ccc(Cl)c(Cl)c1)C(=O)C1=C(O)C(=O)N(CCc2ccc(S(N)(=O)=O)cc2)C1` [Compound 17, 4-Hydroxy-5-oxo-1-[2-(4-sulfamoyl-phenyl)-ethyl]-2,5-dihydro-1H-pyrrole-3-carboxylic acid (3,4-dichloro-benzyl)-methyl-amide] as the compound, how does the inhibition at 20 µM read?
A: 99.9%

Q: Which inhibition at 20 µM does the source give for `CN(Cc1ccc(Cl)c(Cl)c1)C(=O)C1=C(O)C(=O)N(CCC(=O)NC(Cc2cncn2C)C(=O)O)C1` (centres unmarked) [Compound 29] here?
A: 99.9%

Q: Which inhibition at 20 µM does the source give for `CN(Cc1ccc(F)cc1)C(=O)C1=C(O)C(=O)N(CCc2ccncc2)C1` [Compound 7, 4-Hydroxy-5-oxo-1-(2-pyridin-4-yl-ethyl)-2,5-dihydro-1H-pyrrole-3-carboxylic acid (4-fluoro-benzyl)-methyl-amide] here?
A: 99.9%

Q: Which inhibition at 20 µM does the source give for `CN(Cc1ccc(Cl)c(Cl)c1)C(=O)C1=C(O)C(=O)N(CCC(=O)NCCC(=O)O)C1` [Compound 37, 3-(3-{4-[(3,4-Dichloro-benzyl)-methyl-carbamoyl]-3-hydroxy-2oxo-2,5-dihydro-pyrrol-1-yl}-propionylamino)-propionic acid] here?
A: 99.9%

Q: With `CN(Cc1ccc(Cl)c(Cl)c1)C(=O)C1=C(O)C(=O)N(CCC(=O)NCC(=O)O)C1` [Compound 39, (3-{4-[(3,4-Dichloro-benzyl)-methyl-carbamoyl]-3-hydroxy-2-oxo-2,5-dihydro-pyrrol-1-yl}-propionylamino)-acetic acid] as the compound, how does the inhibition at 20 µM read?
A: 99.9%

Q: With `CON(Cc1ccc(F)cc1)C(=O)C1=C(O)C(=O)N(CCN2CCOCC2)C1` [Compound 45, 4-Hydroxy-1-(2-morpholino-4-yl-ethyl)-5-oxo-2,5-dihydro-1H-pyrrole-3-carboxylic acid (4-fluoro-benzyl)-methoxy-amide] as the compound, how does the inhibition at 20 µM read?
A: 99.5%

Q: Which inhibition at 20 µM does the source give for `CON(Cc1ccc(F)cc1)C(=O)C1=C(O)C(=O)N(CCN2CCNCC2)C1` [Compound 46, 4-Hydroxy-5-oxo-1-(2-piperazin-1-yl-ethyl)-2,5-dihydro-1H-pyrrole-3-carboxylic acid (4-fluoro-benzyl)-methoxy-amide] here?
A: 99.3%

Q: With `CCN1CCCC1CN1CC(C(=O)N(C)Cc2ccc(Cl)c(Cl)c2)=C(O)C1=O` (centres unmarked) [Compound 22, 1-(1-Ethyl-pyrrolidin-2-ylmethyl)-4-hydroxy-5-oxo-2,5-dihydro-3-carboxylic acid (3,4-dichloro-benzyl)-methyl-amide] as the compound, how does the inhibition at 20 µM read?
A: 99.9%

Q: Which inhibition at 20 µM does the source give for `COC(=O)c1ccc(CN2CC(C(=O)N(C)Cc3ccc(Cl)c(Cl)c3)=C(O)C2=O)cc1` [Compound 41, 4-{4-[(3,4-Dichloro-benzyl)-methyl-carbamoyl]-3-hydroxy-2-oxo-2,5-dihydro-pyrrol-1-ylmethyl}-benzoic acid methyl ester] here?
A: 99.9%

Q: Which inhibition at 20 µM does the source give for `CN(Cc1ccc(F)cc1)C(=O)C1=C(O)C(=O)N(CCc2ccccc2Cl)C1` [Compound 3, 1-[2-(Chloro-phenyl)-ethyl]-4-hydroxy-5-oxo-2,5-dihydro-1H-pyrrole-3-carboxylic acid (4-fluoro-benzyl)-methyl amide] here?
A: 99.9%

Q: Which inhibition at 20 µM does the source give for `CN(Cc1ccc(Cl)c(Cl)c1)C(=O)C1=C(O)C(=O)N(CCCC(=O)O)C1` [Compound 24, 4-{4-[(3,4-Dichloro-benzyl)-methyl-carbamoyl]-3-hydroxy-2-oxo-2,5-dihydro-pyrrol-1-yl}-butyric acid] here?
A: 99.9%

Q: Which inhibition at 20 µM does the source give for `CN1CC(C(=O)N(Cc2ccc(Cl)cc2)Cc2ccc(Cl)c(Cl)c2)=C(O)C1=O` [Compound 77, 4-Hydroxy-1-methyl-5-oxo-2,5-dihydro-1H-pyrrole-3-carboxylic acid (4-chloro-benzyl)-(3,4-dichloro-benzyl)-amide] here?
A: 99.8%

Q: For `CON(Cc1ccc(F)c(C#N)c1)C(=O)C1=C(O)C(=O)N(C)C1` [Compound 61, 4-Hydroxy-1-methyl-5-oxo-2,5-dihydro-1H-pyrrole-3-carboxylic acid (3-cyano-4-fluoro-benzyl)-methoxy-amide], which inhibition at 20 µM is on record?
A: 99.3%

Q: For `CN(Cc1ccc(Cl)c(Cl)c1)C(=O)C1=C(O)C(=O)N(Cc2ccncc2)C1` [Compound 21], which inhibition at 20 µM is on record?
A: 99.9%

Q: With `CN1CCN(CCN2CC(C(=O)N(C)Cc3ccc(Cl)c(Cl)c3)=C(O)C2=O)CC1` [Compound 32, 4-Hydroxy-1-[2-(4-methyl-piperazin-1-yl)-ethyl]-5-oxo-2,5-dihydro-1H-pyrrole-3-carboxylic acid (3,4-dichloro-benzyl)-methyl-amide] as the compound, how does the inhibition at 20 µM read?
A: 99.9%

System: not given
Experiment: not given
Details: not given

Q: For `CON(Cc1ccc(C)cc1)C(=O)C1=C(O)C(=O)N(C)C1` [Compound 59, 4-Hydroxy-1-methyl-5-oxo-2,5-dihydro-1H-pyrrole-3-carboxylic acid methoxy-(4-methyl-benzyl)-amide], which melting point is on record?
A: 150 to 152 °C

Q: With `CN(Cc1ccc(Cl)c(Cl)c1)C(=O)C1=C(O)C(=O)N(CCC(=O)O)C1` [Compound 18, 3-[4-[(3,4-dichloro-benzyl)-methyl-carbamoyl]-3-hydroxy-2-oxo-2,5-dihydro-pyrrol-1-yl]-propionic acid] as the compound, how does the melting point read?
A: 183 to 184 °C

Q: For `CON(Cc1ccccc1F)C(=O)C1=C(O)C(=O)N(C)C1` [Compound 50, 4-Hydroxy-1-methyl-5-oxo-2,5-dihydro-1H-pyrrole-3-carboxylic acid (2-fluoro-benzyl)-methoxy-amide], which melting point is on record?
A: 147 °C (dec.)

Q: With `CON(Cc1ccc(F)cc1C(F)(F)F)C(=O)C1=C(O)C(=O)N(C)C1` as the compound, how does the melting point read?
A: 167 °C (dec.)

Q: With `CON(Cc1ccc(C)c(F)c1)C(=O)C1=C(O)C(=O)N(C)C1` [Compound 65, 4-Hydroxy-1-methyl-5-oxo-2,5-dihydro-1H-pyrrole-3-carboxylic acid (3-fluoro-4-methyl-benzyl)-methoxy-amide] as the compound, how does the melting point read?
A: 145 °C

Q: For `CON(Cc1ccc(F)cc1)C(=O)C1=C(O)C(=O)N(C)C1`, which melting point is on record?
A: 125 °C (dec.)

Q: Which melting point does the source give for `CON(Cc1ccc(C(F)(F)F)cc1)C(=O)C1=C(O)C(=O)N(CCN2CCOCC2)C1` here?
A: 119 °C (dec.)

Q: Which melting point does the source give for `CN1CC(C(=O)N(C)CCCc2ccc(F)cc2)=C(O)C1=O` here?
A: 129 °C (dec.)

Q: Which melting point does the source give for `CON(CCCc1ccc(Cl)c(Cl)c1)C(=O)C1=C(O)C(=O)N(C)C1` here?
A: 106 to 108 °C

Q: With `CON(Cc1ccc(C(F)(F)F)cc1)C(=O)C1=C(O)C(=O)N(C)C1` as the compound, how does the melting point read?
A: 145 °C (dec.)

Q: Which melting point does the source give for `CN1CC(C(=O)N(C)Cc2ccc(C(F)(F)F)cc2)=C(O)C1=O` here?
A: 126 to 128 °C
